The text below walks through data of patent US20200131669A1, “CYCLIC PEPTIDE COMPOUND HAVING HIGH MEMBRANE PERMEABILITY, AND LIBRARY CONTAINING SAME” (Chugai Seiyaku Kabushiki Kaisha, priority 2017, published 2020).

Structures are written as SMILES. Starred links: 1 amine or outer side, 2 acyl side, 3 side chain; linkers in the order of their positions; H or OH if unused. Positions of bridges follow the written chain, without caps; N, C: chain ends. Non-standard residues stand in square brackets, D forms with d. Residues, ends and D or L forms follow the SMILES beside them. *: point of attachment. NMeAbu(3,3-F2-piperidino) = CN[C@@H](CCN1CCCC(F)(F)C1)C(=O)O; Glu(NHSO2Me) = CS(=O)(=O)NC(=O)CC[C@H](N)C(=O)O; Phe(4-CF3) = N[C@@H](Cc1ccc(C(F)(F)F)cc1)C(=O)O; 3Pal(6-NMe2) = CN(C)c1ccc(C[C@H](N)C(=O)O)cn1; NMePhe(3-Cl) = CN[C@@H](Cc1cccc(Cl)c1)C(=O)O; X14 = O=C([C@H](CCc1ccccc1Cl)N[*:1])[*:2]; hhPhe = N[C@@H](CCCc1ccccc1)C(=O)O; N(isopentyl)Gly = CC(C)CCNCC(=O)O; Hyp = O=C(O)[C@@H]1C[C@@H](O)CN1; NMeF = CN[C@@H](Cc1ccccc1)C(=O)O; NMeGABA = CN(CCCC(=O)[*:2])[*:1]; NMeI = CC[C@H](C)[C@H](NC)C(=O)O; dNMeF = CN[C@H](Cc1ccccc1)C(=O)O; hPhe = N[C@@H](CCc1ccccc1)C(=O)O; NMeD = CN[C@@H](CC(=O)O)C(=O)O; CH2CONHtBu = CC(C)(C)NC(=O)C*; NMeL = CN[C@@H](CC(C)C)C(=O)O; NMeV = CN[C@H](C(=O)O)C(C)C; NMeAbu = CC[C@H](NC)C(=O)O; NPentylGly = CCCCCNCC(=O)O; NMeA = CN[C@@H](C)C(=O)O; Piperidide = C1CCN(*)CC1; Me2NCH2CH2 = CN(C)CC*; NBuGly = CCCCNCC(=O)O; Isopentyl = CC(C)CC*; NPrGly = CCCNCC(=O)O; X11 = FC(F)C(F)(F)C*; Sar = CNCC(=O)O; tBu = CC(C)(C)*; Propyl = CCC*

The nature of the first series: Caco-2 membrane permeability, improved method as used in the following Examples (96-well, 20 to 24 h preincubation). The series is classed as in vitro ADME. To be noted: human, Caco-2, Caco-2. The procedure: In the following Examples, membrane permeability was measured in accordance with the improved method established as described above. Specifically, Caco-2 cells were cultured on a 96-well Transwell for three weeks, after which DMEM+FaSSIF (1% DMSO)+compound were added to the apical side and DMEM was added to the basal side, and the cells were preincubated at 5% CO2, 37° C., and 80 rpm for 20 to 24 hours. Following the preincubation, measurement of membrane permeability was initiated by removing the preincubation solution on the apical and basal sides by suction, washing the membrane, and adding FaSSIF/HBSS buffer (1% DMSO) (pH 6.0) containing the compound to the apical side and HBSS buffer (4% BSA) (pH 7.4) to the basal side. Each well was shaken at 5% CO2, 37° C., and 80 rpm, and 180 minutes after the initiation, the sample on the basal side was collected and the permeation amount was measured by LC/MS. The membrane permeability coefficient (Papp) was calculated from the permeation amount. Herein, the terms “Caco-2 (cm/sec)” in the columns in the tables and “Papp (cm/sec)” are used in the same meaning.
For orientation: Caco-2 cells form a polarised layer with tight junctions and transporters.
`CC(C)CCOC[C@@H]1NC(=O)[C@H](CC(C)C)N(C)C(=O)CN(C)C(=O)[C@H]([C@@H](C)O)NC(=O)[C@H](CC(C)C)N(C)C(=O)[C@H](CC(C)C)NC(=O)[C@H](Cc2ccccc2)N(C)C(=O)[C@@H](C)NC(=O)C[C@@H](C(=O)N2CCCCC2)NC(=O)[C@H](CC(C)C)N(C)C(=O)[C@@H](Cc2ccccc2)N(C)C1=O` [pd300] ([dA][NMeF]L[NMeL]T[Sar][NMeL]S(Isopentyl)[dNMeF][NMeL]D-Piperidide; lactam N-11) had a Papp A→B at 180 min of 1.9 ×10⁻⁶ cm/s.

`CC(C)CCN1CC(=O)N(C)[C@@H](CC(C)C)C(=O)N[C@@H](COC(C)(C)C)C(=O)N(C)[C@@H](Cc2ccccc2)C(=O)N(C)[C@@H](C(C)C)C(=O)N[C@H](C(=O)N2CCCCC2)CC(=O)N[C@H](C)C(=O)N(C)[C@@H](CC(C)C)C(=O)N[C@@H](Cc2ccc(N(C)C)nc2)C(=O)N(C)[C@@H](CC(C)C)C(=O)N[C@@H]([C@@H](C)O)C1=O` [pd396] ([dA][NMeL][3Pal(6-NMe2)][NMeL]T[N(isopentyl)Gly][NMeL]S(tBu)[NMeF][NMeV]D-Piperidide; lactam N-11) showed a Papp A→B at 180 min of 1.5 ×10⁻⁶ cm/s.

With `CCCCCN1CC(=O)N(C)[C@@H](Cc2ccccc2)C(=O)N(C)[C@@H](CC(C)C)C(=O)N[C@@H](COC(C)(C)C)C(=O)N(C)[C@@H](CC(C)C)C(=O)N[C@H](C(=O)N2CCCCC2)CC(=O)N(C)CC(=O)N(C)[C@@H](Cc2ccccc2)C(=O)N[C@@H](C(C)C)C(=O)N(C)[C@@H](C)C(=O)N[C@@H]([C@@H](C)O)C1=O` [pd404] ([Sar][NMeF]V[NMeA]T[NPentylGly][NMeF][NMeL]S(tBu)[NMeL]D-Piperidide; lactam N-11), the Papp A→B at 180 min amounted to 1.3 ×10⁻⁶ cm/s.

Turning to `CCCN1CC(=O)N(C)[C@@H](Cc2ccccc2)C(=O)N[C@@H](COCC(F)(F)C(F)F)C(=O)N(C)[C@@H](CC(C)C)C(=O)N[C@@H]([C@@H](C)O)C(=O)N(C)CC(=O)N(C)[C@@H](Cc2ccccc2)C(=O)N(C)[C@@H](CC(C)C)C(=O)N[C@@H](COC(C)(C)C)C(=O)N(C)[C@@H](CC(C)C)C(=O)N[C@H](C(=O)N2CCCCC2)CC1=O` [pd349] ([NPrGly][NMeF]S(X11)[NMeL]T[Sar][NMeF][NMeL]S(tBu)[NMeL]D-Piperidide; lactam N-11), the Papp A→B at 180 min was 1.8 ×10⁻⁶ cm/s.

Regarding `CC(C)CCOC[C@@H]1NC(=O)[C@H](CCN2CCCC(F)(F)C2)N(C)C(=O)[C@H](Cc2ccccc2)N(C)C(=O)CN(C)C(=O)[C@H]([C@@H](C)O)NC(=O)[C@H](CC(C)C)N(C)C(=O)[C@H](CC(C)C)NC(=O)[C@H](Cc2ccccc2)N(C)C(=O)CN(C)C(=O)C[C@@H](C(=O)N2CCCCC2)NC(=O)[C@H](CC(C)C)N(C)C1=O` [pd393] ([Sar][NMeF]L[NMeL]T[Sar][NMeF][NMeAbu(3,3-F2-piperidino)]S(Isopentyl)[NMeL]D-Piperidide; lactam N-11), the Papp A→B at 180 min stood at 2.5 ×10⁻⁶ cm/s.

`CC(C)C[C@@H]1NC(=O)[C@H](CC(C)C)N(C)C(=O)CN(C)C(=O)[C@H]([C@@H](C)O)NC(=O)[C@H](CC(C)C)N(C)C(=O)[C@H](CCc2ccccc2Cl)NC(=O)[C@H](C)N(C)C(=O)[C@@H](C(C)C)NC(=O)C[C@@H](C(=O)N2CCCCC2)NC(=O)[C@H](C(C)C)N(C)C(=O)[C@H](Cc2ccccc2)N(C)C1=O` [pd351] ([dV][NMeA][X14][NMeL]T[Sar][NMeL]L[NMeF][NMeV]D-Piperidide; lactam N-11) registered a Papp A→B at 180 min of 1.9 ×10⁻⁶ cm/s.

As for `CCCCN1CC(=O)N(C)[C@@H](C(C)C)C(=O)N[C@H](C(=O)N2CCCCC2)CC(=O)N(C)[C@@H](CC)C(=O)N[C@@H](CC(C)C)C(=O)N(C)[C@@H](CC(C)C)C(=O)N(C)[C@@H](Cc2ccccc2)C(=O)N[C@@H](CCC(=O)NS(C)(=O)=O)C(=O)N(C)[C@@H](Cc2ccccc2)C(=O)N(C)[C@@H](CC(C)C)C(=O)N[C@@H](CC(C)C)C1=O` [pd69] ([NMeAbu]L[NMeL][NMeF][Glu(NHSO2Me)][NMeF][NMeL]L[NBuGly][NMeV]D-Piperidide; lactam N-11), the Papp A→B at 180 min is < 0.14 ×10⁻⁶ cm/s.

Take `CC[C@H](C)[C@@H]1NC(=O)[C@H](CC(C)C)N(C)C(=O)CCCN(C)C(=O)C[C@@H](C(=O)N2CCCCC2)NC(=O)[C@H](CC(C)C)N(C)C(=O)[C@H](C)N(C)C(=O)[C@H]([C@@H](C)O)NC(=O)[C@H](CC(C)C)N(C)C(=O)[C@H](CCc2ccccc2)NC(=O)[C@H](CC(C)C)N(C)C(=O)[C@H](Cc2ccccc2)N(C)C1=O` [pd316] ([NMeGABA][NMeL]I[NMeF][NMeL][hPhe][NMeL]T[NMeA][NMeL]D-Piperidide; lactam N-11): the Papp A→B at 180 min stood at 1.4 ×10⁻⁶ cm/s.

As for `CCCCN1CC(=O)N(C)[C@@H](Cc2ccccc2)C(=O)N[C@@H]([C@@H](C)CC)C(=O)N(C)[C@@H](CC(C)C)C(=O)N[C@@H]([C@@H](C)O)C(=O)N(CCC)CC(=O)N(C)[C@@H](Cc2ccccc2)C(=O)N(C)[C@@H](CC(C)C)C(=O)N[C@@H](COCC(=O)NC(C)(C)C)C(=O)N(C)[C@@H](C)C(=O)N[C@H](C(=O)N2CCCCC2)CC1=O` [pd443] ([NBuGly][NMeF]I[NMeL]T[NPrGly][NMeF][NMeL]S(CH2CONHtBu)[NMeA]D-Piperidide; lactam N-11), the Papp A→B at 180 min was 1 ×10⁻⁶ cm/s.

Consider `CCCCN1CC(=O)N(C)[C@@H](CC(C)C)C(=O)N[C@H](C(=O)N2CCCCC2)CC(=O)N(C)[C@@H](C)C(=O)N[C@@H](Cc2ccc(N(C)C)nc2)C(=O)N(C)[C@@H](C)C(=O)N(C)[C@@H](C)C(=O)N[C@@H](CC(C)C)C(=O)N(C)[C@@H](Cc2cccc(Cl)c2)C(=O)N(C)[C@@H](CC(C)C)C(=O)N[C@@H]([C@@H](C)O)C1=O` [pd400] ([NMeA][3Pal(6-NMe2)][NMeA][NMeA]L[NMePhe(3-Cl)][NMeL]T[NBuGly][NMeL]D-Piperidide; lactam N-11), for which the Papp A→B at 180 min is 2.3 ×10⁻⁶ cm/s.

For `CC[C@H](C)[C@H]1C(=O)N[C@H](C(=O)N2CCCCC2)CC(=O)N(C)CC(=O)N(C)[C@@H](Cc2ccccc2)C(=O)N[C@@H](CCCc2ccccc2)C(=O)N(C)[C@@H](CC(C)C)C(=O)N[C@@H]([C@@H](C)O)C(=O)N(C)CC(=O)N(C)[C@@H](Cc2ccccc2)C(=O)N(C)[C@@H](CC(C)C)C(=O)N[C@@H](COC(C)(C)C)C(=O)N1C` [pd366] ([Sar][NMeF][hhPhe][NMeL]T[Sar][NMeF][NMeL]S(tBu)[NMeI]D-Piperidide; lactam N-11), the Papp A→B at 180 min was 1.8 ×10⁻⁶ cm/s.

On to `CCCCN1CC(=O)N(C)[C@@H](CC(C)C)C(=O)N[C@@H](COCCN(C)C)C(=O)N(C)[C@@H](Cc2ccccc2)C(=O)N(C)[C@@H](C(C)C)C(=O)N[C@H](C(=O)N2CCCCC2)CC(=O)N[C@H](CC(C)C)C(=O)N(C)[C@@H](Cc2ccccc2)C(=O)N[C@@H](CC(C)C)C(=O)N(C)[C@@H](CC(C)C)C(=O)N[C@@H]([C@@H](C)O)C1=O` [pd51] ([dL][NMeF]L[NMeL]T[NBuGly][NMeL]S(Me2NCH2CH2)[NMeF][NMeV]D-Piperidide; lactam N-11), for which the Papp A→B at 180 min amounted to 0.07 ×10⁻⁶ cm/s.

In the case of `CCCOC[C@@H]1NC(=O)[C@H](CC(C)C)N(C)C(=O)[C@H](C(C)C)NC(=O)[C@H](Cc2ccccc2)N(C)C(=O)[C@@H](C(C)C)NC(=O)C[C@@H](C(=O)N2CCCCC2)NC(=O)[C@H](C)N(C)C(=O)[C@H](Cc2ccccc2)N(C)C(=O)[C@H](COC(C)(C)C)NC(=O)[C@H](CC(C)C)N(C)C(=O)CN(C)C1=O` [pd326] ([dV][NMeF]V[NMeL]S(Propyl)[Sar][NMeL]S(tBu)[NMeF][NMeA]D-Piperidide; lactam N-11), the Papp A→B at 180 min stood at 3.3 ×10⁻⁶ cm/s.

For `CCO[C@@H]1C[C@H]2C(=O)N(C)[C@@H](CC(C)C)C(=O)N[C@@H]([C@@H](C)O)C(=O)N(C)[C@@H](Cc3ccccc3)C(=O)N[C@@H](Cc3ccccc3)C(=O)N(C)[C@@H](CC(C)C)C(=O)N(C)[C@H](C(=O)N3CCCCC3)CC(=O)N[C@@H](C)C(=O)N(C)[C@@H](C(C)C)C(=O)N[C@@H](COC(C)(C)C)C(=O)N(C)[C@@H](CC(C)C)C(=O)N2C1` [pd373] (A[NMeV]S(tBu)[NMeL][Hyp](Et)[NMeL]T[NMeF]F[NMeL][NMeD]-Piperidide; lactam N-11), the Papp A→B at 180 min came out at 2 ×10⁻⁶ cm/s.

The same series, now with this note: human, Caco-2, Caco-2 (cm/sec).
With `CC(C)C[C@@H]1NC(=O)C[C@@H](C(=O)N2CCCCC2)N(C)C(=O)[C@H](Cc2ccc(C(F)(F)F)cc2)NC(=O)[C@H](CC(C)C)N(C)C(=O)CN(C)C(=O)[C@H]([C@@H](C)O)NC(=O)[C@H](CC(C)C)N(C)C(=O)[C@H](CC(C)C)N(C)C1=O` [pd151] (L[NMeL][NMeL]T[Sar][NMeL][Phe(4-CF3)][NMeD]-Piperidide; lactam N-8), the Papp A→B at 180 min amounted to 3.2 ×10⁻⁶ cm/s.

Still in this series, the particulars now being: human, Caco-2; read-out: Caco-2.
For `CC(C)C[C@@H]1NC(=O)[C@H](CC(C)C)N(C)C(=O)[C@H](C(C)C)NC(=O)C[C@@H](C(=O)N2CCCCC2)NC(=O)[C@H](CC(C)C)N(C)C(=O)[C@H]([C@@H](C)O)NC(=O)[C@H](Cc2ccc(C(F)(F)F)cc2)NC(=O)[C@H](CC(C)C)N(C)C(=O)[C@H](C)N(C)C1=O` [pd146] (V[NMeL]L[NMeA][NMeL][Phe(4-CF3)]T[NMeL]D-Piperidide; lactam N-9), the Papp A→B at 180 min was 1.7 ×10⁻⁶ cm/s.
